88 compounds from a melting point compilation (Tetko et al.; mined from patent text by program, amines drawn as free bases though some values may be those of a salt) can be followed below.

The compound `CCCCn1c(=O)c2c(ncn2CCC(C)=O)n(CCCC)c1=O` gave a melting point of 86 to 87 °C. With `CC(C)COc1ccccc1C(N)=O`, the melting point was in the range of 125 to 128 °C.

Regarding `O=[N+]([O-])c1ccc(Oc2ccc(Cl)c(Cl)c2)nc1`, the melting point lay in the range of 101 to 102 °C. The compound `CN(C)C=NC(=S)Nc1ccccc1` gave a melting point of 139 to 143 °C. For `O=C1OC(CCCO)C(c2ccccc2)=C1O` (stereo not drawn) the value was 148 to 150 °C; for `CCOC(=O)c1cc(=O)c(Oc2ccccc2OC)co1`, 74 to 76 °C.

In turn, `CSc1ncc(Br)c(P(=O)(c2ccccc2)c2ccccc2)n1` displayed a melting point of 124 to 127 °C. `CNC(=O)n1cnc(C(=O)NC(C)(C)C)c1N` yielded a melting point of 145 to 147 °C. For `CCc1ccc2c(=O)cc(C(=O)O)[nH]c2c1` the value was 271 °C. As for `CC(=O)Nc1nc(Cl)c2ncn([C@@H]3C[C@H](OC(C)=O)[C@@H](O)[C@H]3O)c2n1` (racemic), the figure is 198 °C; as for `CC1=c2c(cc3c(c2C)-c2ccccc2N=3)N=C1c1nc(C)no1`, 248 to 249 °C; as for `O=C(C1=C(N2CCCC2)CCC1)c1cccnc1Cl`, 102 to 104 °C.

Consider `CCOC(=O)c1ccc(N2C(=O)CCC2CO)c([N+](=O)[O-])c1` (stereo not drawn), for which the melting point lay in the range of 90 to 95 °C. `COC(=O)c1cn(-c2c(Cl)cc(Cl)cc2Cl)nc1C(F)(F)F` displayed a melting point of 107 to 108 °C. `Cc1nn(C)c(Cl)c1S(N)(=O)=O` registered a melting point of 173 °C.

The compound `C=C(C)CN1C(=O)c2ccccc2Oc2ncccc21` came in with a melting point of 106 to 107 °C.

Take `CCOC(=O)c1c(N2CCOCC2)c2cc(Cl)ccc2n(C)c1=O`: the melting point lay within 167 to 169 °C.

In turn, `CC(C)(C)c1ccc(CI)cc1[N+](=O)[O-]` returned a melting point of 98 to 99 °C.

Compound `COC(=O)[C@H](Cc1ccc(I)cc1)NC(C)=O` registered a melting point of 118 to 120 °C. With `CCN(CC)C(=O)c1ccc(C(=C2CCN(Cc3ccccc3)CC2)c2ccc(Cl)cc2)cc1`, the melting point was in the range of 100 to 110 °C.

`COc1cccc([C@]23CCN(C)C(=O)[C@@H]2CCC(=O)C3)c1` (relative stereo) had a melting point of 156 to 158 °C. `O=S1c2ccccc2Nc2nccnc21` (stereo not drawn) returned a melting point of 261 to 263 °C. For `CC(=O)c1ccc(-c2ccc(Br)cc2)c(F)c1` the value was 89 to 91 °C; for `Cc1cc(-c2nnc3c4ccccc4c(OCc4cc(C(C)(C)C)cnn4)nn23)no1`, 219 to 221 °C. `CC(=O)SC(CC(=O)c1ccc(Oc2ccc(Cl)cc2)cc1)C(=O)O` (stereo not drawn) came in with a melting point of 91 to 94 °C. As for `Oc1ccc(/C(=C(\c2ccccc2)C(F)(F)F)c2ccccc2)cc1`, the figure is 113 to 120 °C; as for `CN1CCOc2cc(S(=O)(=O)n3c(COC(C)(C)C(=O)O)cc4cc(C(F)(F)F)ccc43)ccc21`, 148 to 150 °C; as for `COc1cc(OC)cc(OC(=S)N(C)C)c1`, 77 to 78 °C.

With `CN(C)C(=O)c1cccnc1S(N)(=O)=O`, the melting point was 188 to 191 °C. `CC1(C)Oc2cc(C(=O)O)sc2[C@@H](N2CCCCC2=O)[C@@H]1O` (relative stereo) showed a melting point of 268 to 270 °C. For `COc1ccccc1S(=O)(=O)N(C)c1cccc2cc(C3=NCC(CC(=O)O)S3)[nH]c12` (stereo not drawn) the value was 197 to 198 °C. For the compound `O=[N+]([O-])c1ccccc1Oc1ccccc1Cl`, the melting point lay within 48 to 49 °C. For the compound `CCOC(=O)C(=O)Nc1sccc1C(N)=O`, the melting point lay within 186 to 187 °C. As for `CCCCNC(=O)Nc1ccccc1C(=O)NCC1CCN(C(c2ccccc2)c2ccccc2)CC1`, the figure is 197 to 198 °C; as for `O=C(OCc1ccccc1)c1ncoc1CCNC(=O)[C@H](O)Cc1ccccc1`, 106 to 108 °C; as for `O=C(c1ccc(Cl)c(Cl)c1)N1CCC(Br)C(c2ccccc2)=N1` (stereo not drawn), 168 to 169 °C.

`CCC(=O)c1ccc(OCc2cccc(C(F)(F)F)c2)cc1` came in with a melting point of 63 to 64 °C. Consider `CC(C)(C)[Si](C)(C)OC1=Cc2ccccc2C1[Si](C)(C)C1C(O[Si](C)(C)C(C)(C)C)=Cc2ccccc21` (stereo not drawn), for which the melting point fell in the range of 92 to 94 °C.

Take `Clc1ccc(CC2(c3cccnc3)OCCO2)c(Cl)c1`: the melting point lay in the range of 76 to 78 °C. The compound `Cc1cc(-n2nc3ccc(Cl)cc3n2)c(O)c(C(C)(C)C)c1` showed a melting point of 138 to 140 °C. For `CCCN1N=C2C(=Cc3ccc(OC)cc3)CS(=O)(=O)CC2C1c1ccc(OC)cc1` (stereo not drawn) the value was 195 to 198 °C; for `CC1(C(F)(F)F)CC(=O)C(C(=O)c2ccc(C(F)(F)F)cc2[N+](=O)[O-])C(=O)N1` (stereo not drawn), 164 to 166 °C; for `CS(=O)(=O)c1ccc(-c2cnn(CC(F)(F)F)c(=O)c2Oc2ccc(-c3ccccc3)cc2)cc1`, 163 to 165 °C. Turning to `CC(C)C(NC(=O)OCc1ccncc1)C(=O)NC(Cc1ccccc1)C(O)C(Cc1ccccc1)NC(=O)C(NC(=O)OCc1ccncc1)C(C)C` (stereo not drawn), the melting point is 158 to 159 °C. `CCOC(=O)c1[nH]c(C)nc1C(=S)OCC`: the melting point fell in the range of 119 to 121 °C.

In turn, `O=C(Nc1ccccc1)c1ccc2c(c1)S(=O)(=O)N=CN2C1CC1` yielded a melting point of 293 to 296 °C.

Compound `CCCc1[nH]c(C(=O)OCC)c(CCC)c1C` returned a melting point of 78 to 80 °C.

The compound `O=C(O)Cc1c(C(=O)c2ccc(Cl)cc2)[nH]c2ccc(F)cc12` yielded a melting point of 233 to 238 °C. The compound `Cn1cc(-c2cc(Cl)cc(Cl)c2)c(=O)c(-c2cc(Cl)cc(Cl)c2)c1` came in with a melting point of 275 to 278 °C. For `COC(OC)c1cc(O)cc(Cl)c1` the value was 153 °C; for `CNC(=O)OCc1nc(C(C)C)c(Sc2cc(Cl)cc(Cl)c2)n1C`, 112 to 113 °C.

Turning to `O=C1CCN(C(=O)c2ccc(Cl)cc2Cl)c2ccc(Cl)cc21`, the melting point was 177 to 178 °C. `CCc1noc(-c2cn(-c3ncc(OC(C)C)cn3)cn2)n1` gave a melting point of 156 to 157 °C.

Consider `O=C(O)c1cccc(N(CCc2ccccc2)c2nnc(-c3cccc(Oc4cccc(C(F)(F)F)c4)c3)s2)c1`, for which the melting point fell in the range of 92 to 93 °C. As for `COc1cc(OC)c(C(=O)CC(O)C(=O)O)cc1OC` (stereo not drawn), the figure is 145 to 147 °C. In turn, `O=Cn1cc(Cl)c(-c2ccccc2C(F)(F)F)c1` showed a melting point of 75 to 78 °C. For `Cc1c2ccccc2c(-c2cc(Br)c(OC(Cc3ccccc3)C(=O)O)c(Br)c2)c2c1sc1ccccc12` (stereo not drawn) the value was 117 to 122 °C; for `COc1ccc(C(=O)Nc2ccc3ccc(Br)nc3n2)cc1`, 221 °C; for `O=C1CCC(c2cccc(Cl)c2)(c2cccc(Cl)c2)[C@@H]2CN(C(=O)Cc3ccccc3)C[C@H]12` (racemic), 160 °C.

`CC(SC1COC(c2cccc(C(=O)Nc3ccc(Cl)cc3)c2)OC1)C(O)(Cn1cncn1)c1ccc(F)cc1F` (stereo not drawn) showed a melting point of 90 °C. As to `O=C1c2ccccc2C(=O)N1CCc1cccc(N2C(=O)N(c3c(Cl)cccc3Cl)Cc3cnc(Nc4ccccc4)nc32)c1`, the melting point is 142 °C. For `CCCc1ccccc1OCC(O)COc1ccc2oc(C(=O)O)cc(=O)c2c1` (stereo not drawn) the value was 164 to 166 °C; for `CCc1c(Sc2cc(Cl)cc(Cl)c2)c(CO)nn1CCO`, 89 to 90 °C; for `O=C(O)c1ccc2c(c1)S(=O)c1cc(F)ccc1C=C2` (stereo not drawn), 255 to 257 °C. In turn, `CCCCCCCCOC(=O)CS(=O)(=O)Nc1c(C(C)C)cccc1C(C)C` came in with a melting point of 56 to 58 °C. For `c1ccc(COc2n[nH]cc2-c2ccccc2)cc1` the value was 163 °C; for `CN(C)C(=O)NCc1cccc(-c2nc(=O)c3ccccc3s2)n1`, 175 to 176 °C. The compound `N#Cc1ccc(NC(=O)c2cc3cccc(S(=O)(=O)c4ccccc4)c3[nH]2)c(-c2nnn[nH]2)c1` gave a melting point of 293 to 295 °C. As to `Nc1cccc(Oc2ncccc2C(=O)NCc2ccccc2Cl)c1`, the melting point fell in the range of 101 to 103 °C. `NS(=O)(=O)OCCCOc1ccccc1` came in with a melting point of 83 to 85 °C. As for `CCOC(=O)c1ccc(C#Cc2ccc3c(c2)C(=O)CC(C)(C)S3)cc1`, the figure is 102 to 104 °C.

For `CN(Cc1cc(C(F)(F)F)cc(C(F)(F)F)c1)C(=O)c1ncc2ccccc2c1-c1ccc(F)cc1`, the melting point fell in the range of 134 to 135 °C.

For `COC(=O)C1(C(=O)OC)CN(C(=O)OC(C)(C)C)c2cc([N+](=O)[O-])ccc21`, the melting point came to 132 °C.

In the case of `CCOC(=O)C1CCN(C(=O)COc2cc(-c3ccccc3)nc3ccccc23)CC1`, the melting point came out at 120 °C. For `COc1ccc(Oc2nccnc2Cl)cc1` the value was 62 to 64 °C; for `Cc1ccc(S(=O)(=O)NC(=O)OCCc2ccc(-n3c(CCCN4CCCC4=O)nc4cc(C(F)(F)F)c(Cl)cc43)cc2)cc1`, 85 to 90 °C. As for `CCOC(=O)c1cc2cc([N+](=O)[O-])ccc2s1`, the figure is 163 °C; as for `COc1cc(C(=O)N[C@H]2CCNC2)ccc1Nc1ncc2c(n1)N(C1CCCCC1)CC(F)(F)C(=O)N2C`, 195 to 198 °C. Compound `CC(C)(C)OC(=O)C(CC(=O)O)N1C(=O)C2NC(C)(C)SC21` (stereo not drawn) had a melting point of 137 to 138 °C. For `CCCCCCCCCCCCCCCCCCN(C)c1ccc([N+](=O)[O-])cc1C(=O)O` the value was 108 to 109 °C.

Compound `CC(c1ccc2c(c1)N(Cc1ccc(S(C)(=O)=O)cc1)c1ccccc1S2)N(O)C(N)=O` (stereo not drawn) returned a melting point of 143 to 145 °C. As for `COc1ccc(N2CCN(Cc3cn(C)c4ncccc34)CC2)cc1`, the figure is 92 to 94 °C. The compound `CN1CCC(=C2c3ccccc3C=C(Br)c3ccccc32)CC1` had a melting point of 127 to 129 °C.

In turn, `C[C@]1(COc2ccc(N3CCC(Nc4cc(Cl)cc(Cl)c4)CC3)cc2)Cn2cc([N+](=O)[O-])nc2O1` registered a melting point of 122 to 124 °C. For `CC1(C)CCc2ccc(O)cc21` the value was 84.5 to 86.5 °C. `O=C(O)CCP(=O)(O)c1ccccc1` gave a melting point of 158 to 161 °C.

`CC(=O)c1ccc(-c2ccc(S(C)(=O)=O)cc2)o1` yielded a melting point of 160 to 164 °C.

With `CC(C)c1[nH]cnc1CO`, the melting point was 121 to 123 °C.
